Measured values as given in PMC12733451, “A Novel RANKL/RANK Inhibitor IMB-R38 Inhibits Osteoporosis Through Regulating Bone Metabolism” (International Journal of Molecular Sciences, 2025).

Target: T1, RANK (Mus musculus, UniProt O35305)
T1 construct: gene Tnfrsf11a; extracellular segment of RANK (amino acid 26–210), His-RANK fusion expressed in E. coli
T1 sequence (O35305 26-210): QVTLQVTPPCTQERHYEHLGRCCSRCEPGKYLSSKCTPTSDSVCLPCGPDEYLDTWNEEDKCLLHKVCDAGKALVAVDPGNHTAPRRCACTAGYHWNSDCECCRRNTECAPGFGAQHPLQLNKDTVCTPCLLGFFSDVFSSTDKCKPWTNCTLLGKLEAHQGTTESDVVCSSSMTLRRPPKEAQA
Assay: SPR on immobilized RANK; supported by CETSA in RAW264.[…] cells
Format: binding

Q: For O=C(Nc1ccc(N2CCCCC2)cc1)c1ccccc1O [IMB-R38, 2-hydroxy-N-(4-(piperidin-1-yl)phenyl)benzamide], which Kd is on record?
A: The Kd was 945 µM.
